The subject of data set [1] is WT CD4+CD25− cells. In words: In vitro T regulatory cell induction, WT T cells. It is filed as cell-based, mouse. The method, then: (§1) FIG. 7. DGAT1 limits retinoic acid-dependent Treg induction. WT or DGAT1 KO CD4+CD25− cells were incubated with T cell-depleted DGAT1 KO MLN cells in delipidated serum in the absence or presence of: soluble anti-CD3; TGFβ; retinol (ROL; 10 nM); A922500 (100 nM); or AM580 (10 nM) where indicated. After 3 days, TCRβ+ lymphocytes in the live gate were analyzed for expression of CD4 and Foxp3 by flow cytometry. (a) Representative FACS plots show the frequency of WT (top panels) or DGAT1 KO (bottom panels) CD4+Foxp3+ Tregs within the gate. (b) FACS data are summarized in bar graph form. Bars depict the mean+SEM of triplicate wells. Two independent experiments were performed.
(§2) This acyl-CoA:retinol acyltransferase (ARAT) function enables DGAT1 to convert retinol (vitamin A) to its storage retinyl ester form. RA, the active metabolite of vitamin A, supports Treg induction; however, T lymphocytes cannot synthesize RA autonomously. We hypothesized that T cell-expressed DGAT1 functions as an ARAT, diverting retinol to its storage ester form. This would lead to a reduction in levels of RA locally. Conversely, DGAT1 deficiency would prevent this sequestration of retinol, leading to elevated RA and Treg induction. […]

The test system of data set [2] is C57BL/6 mice. Put plainly: Tolerability observations in treated mice (behavior, leukocytes, organ wet weights and gross morphology). The format is in vivo, mouse. The note with it: mice induced to develop EAE, treated from day 12 p.i. From the text:
To address this possibility, we first determined whether pharmacological inhibition of DGAT1 could modulate clinical EAE. […] Suppression of clinical disease was evident as early as 2 days after dosing began and persisted until termination of the experiment at day 30 p.i. (FIG. 3a). Overall, the compound delayed onset of clinical signs by an average of 6 days and reduced disease incidence at day 30 p.i. by 30%. […] Thus, administration of a selective DGAT1 inhibitor attenuates EAE.

For data set [3] the following is noted: daily 10 mg/kg; models of obesity; cited from earlier work.
Data set [4] has as its system C57BL/6 mice with MOG35-55-induced EAE. In words: EAE induced by active immunization with MOG35-55/CFA, clinical scoring and CNS histology. The format is in vivo, mouse. The method, then:
In addition, administration of a selective DGAT1 inhibitor attenuated MOG35-55-induced EAE. C57BL/6 mice (8 weeks old) were induced to develop EAE by active immunization with MOG35-55/CFA. Twelve days after disease induction (indicated by the arrow), mice were administered vehicle (10% Captisol) or 10 mg/kg DGAT1 inhibitor A922500 once daily via s.c. injection and followed for clinical disease (n=10/group). Clinical data are presented as the mean score ±SEM. The scoring system is as follows: 0, normal or healthy; 1, limp tail; 2, hindlimb weakness; 3, hindlimb paralysis; 4, hindlimb and forelimb paralysis. *P<0.05 (days 14-30) by Mann-Whitney U test.
EAE models. For EAE induction by active immunization, mice (8-10 weeks old) were immunized via subcutaneous (s.c.) injection with 100 μg MOG35-55 emulsified in CFA as described. Mice also received 250 ng pertussis toxin (List Biological Labs) via tail vein injection at the time of MOG35-55/CFA immunization and again 2 days later. Clinical disease was scored as follows: 0=normal or healthy; 1=flaccid tail; 2=hindlimb weakness; 3=hindlimb paralysis; 4=hindlimb and forelimb paralysis; 5=moribund or dead. Where indicated, A922500 was formulated in 10% Captisol vehicle for in vivo dosing via s.c. injection (100 μl volume). Individuals who conducted the clinical scoring were blinded to the treatment that the mice received.
Histology. Brain and spinal cord tissues were fixed in 10% buffered formalin. Paraffin-embedded tissues were then stained with H&E, and CNS inflammatory foci (>10 mononuclear cells/focus) in leptomeninges and parenchyma were counted in each mouse sample in a blinded fashion.
Statistics. The Mann-Whitney U test was applied to analyze nonparametric clinical EAE data, and the Student's t test was used to analyze all parametric data. The Fisher's exact test was used to compare disease incidence.

The test system of data set [5] is DGAT1 KO CD4+CD25− cells. Put plainly: In vitro T regulatory cell induction, DGAT1 KO T cells. The format is cell-based, mouse. The following applies: retinol 10 nM; anti-CD3/TGFβ, DGAT1 KO MLN cells, delipidated serum, 3 days. The method, then:
as §1, §2

Setting [6] is: 30 days after EAE induction, mean (SEM), 10 mg/kg s.c. once daily from day 12.

SMILES strings stand for the structures.

For the compound `O=C(Nc1ccccc1)Nc1ccc(-c2ccc(C(=O)[C@@H]3CCC[C@H]3C(=O)O)cc2)cc1` [A922500], the “Difference between DGAT1−/− and WT Treg induction responses to retinol” value in data set [1] (A922500 100 nM with retinol 10 nM, anti-CD3/TGFβ, 3 days) was “abrogated the difference between DGAT1−/− and WT cell responses”. Moreover, in data set [2], the “Leukocyte numbers or composition within peripheral lymphoid tissues” value is listed as “did not induce overt behavioral changes or significantly alter leukocyte numbers or composition within peripheral lymphoid tissues”; the “Organ toxicity (wet weights and gross morphology of several organs incl. spleen and thymus)” value is reported as “did not cause detectable organ toxicity”; the Overt behavioral changes entry is “did not induce overt behavioral changes”. Besides, the “Serum TG levels” value in data set [3] was “significantly reduces serum TG levels”. Also, the “Time after start of dosing at which suppression of clinical disease was evident” value in data set [4] (10 mg/kg daily from day 12 p.i., persisted until day 30 p.i.) is 2 days. In data set [4] (10 mg/kg s.c. once daily from day 12 p.i., clinical score 0-5), the “Mean maximal score (SEM)” value is reported as 1.4 (0.4)^ns. Also, the “Mean day of onset (SEM)” value in data set [4] (10 mg/kg s.c. once daily from day 12 p.i., only animals that developed EAE) is 20.1 (1.9)* day. In data set [4] (setting [6]), the “No. of CNS inflammatory foci, Meninges” value is given as 19.8 (8.8) and the “No. of CNS inflammatory foci, Parenchyma” value is 29.9 (12.4). Moreover, in data set [4] (average, versus vehicle, 10 mg/kg daily from day 12 p.i.), the “Delay of onset of clinical signs” value is 6 days. Further, the “Effect on clinical EAE” value in data set [4] (daily 10 mg/kg, P<0.05 days 14-30 p.i. by Mann-Whitney U test) is recorded as “attenuated EAE”. Moreover, in data set [4] (versus vehicle, 10 mg/kg daily from day 12 p.i.), the “Reduction of disease incidence at day 30 p.i.” value turned out to be 30%.
As for `CC1(C)CCC(C)(C)c2cc(C(=O)Nc3ccc(C(=O)O)cc3)ccc21` [AM580], the “Treg induction by RAR agonist” value in data set [1] (AM580 10 nM, WT and DGAT1 KO cells, DGAT1 deficiency had no significant effect) is “enhanced Treg induction”.
On to `CC1=C(/C=C/C(C)=C/C=C/C(C)=C/CO)C(C)(C)CCC1` [retinol, All-trans-retinol], for which the “Foxp3+ Treg induction” value in data set [5] is on record as “significantly enhanced”.

The values are drawn from patent publication US10226470B2, “DGAT1 inhibition for treatment of demyelinating inflammatory disease” (The Board of Trustees of the Leland Stanford Junior …, priority 2014, dated 2019).
